Measurements published in patent US5234925A (Dana-Farber Cancer Institute, Inc., priority 1991, dated 1993).
Like-named read-outs stand apart in the source and are kept apart here.

Assays:
L1210 cells [1] = details: cited from earlier work; for IC50: 48 h, RPMI 1640 with 10% nondialyzed fetal calf serum
Mouse liver FPGS [2] = molecular target: T1, Mouse liver FPGS (Mus musculus, UniProt P48760); details: relative to folic acid (1.0); cited from earlier work
T1 sequence (P48760 43-587): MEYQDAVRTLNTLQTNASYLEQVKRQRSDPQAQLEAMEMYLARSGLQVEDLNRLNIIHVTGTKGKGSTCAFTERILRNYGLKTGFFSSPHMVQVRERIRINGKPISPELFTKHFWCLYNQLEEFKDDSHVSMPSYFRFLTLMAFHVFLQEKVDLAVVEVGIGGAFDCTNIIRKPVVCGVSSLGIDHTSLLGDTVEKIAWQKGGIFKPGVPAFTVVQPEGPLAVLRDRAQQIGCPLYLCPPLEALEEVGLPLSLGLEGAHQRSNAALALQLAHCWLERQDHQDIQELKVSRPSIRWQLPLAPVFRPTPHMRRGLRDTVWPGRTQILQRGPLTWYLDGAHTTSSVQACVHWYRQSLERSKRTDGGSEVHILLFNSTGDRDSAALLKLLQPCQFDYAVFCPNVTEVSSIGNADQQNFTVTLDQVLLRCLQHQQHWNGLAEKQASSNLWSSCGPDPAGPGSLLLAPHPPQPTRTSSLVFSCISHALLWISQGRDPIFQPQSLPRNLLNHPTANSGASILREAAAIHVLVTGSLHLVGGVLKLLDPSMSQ

[3] = physiologic pH; cited from earlier work
[4] = clinical trials; cited from earlier work
[5] = compared with reduced folates and MTX; cited from earlier work
L1210 TS [6] = molecular target: T2, L1210 TS (Mus musculus, UniProt P07607); details: cited from earlier work
T2 construct: purified TS from L1210 murine leukemic cells; endogenous in cells; host or cells: L1210 murine leukemic cells (enzyme purified from them)

L1210 cells [7] = experiment: Inhibition of growth of L1210 cells in culture; format: cell-based, murine; details: for IC50: Mus musculus, L1210
Protocol: ^d Cells were incubated in RPMI 1640 medium supplemented with 10%
nondialyzed fetal calf serum, and were counted after 48 h of drug
^e The IC50 for cells grown in the presence of 10 μM dThd
increased only to 0.84 μM.
It was therefore of interest to determine whether 2-aza analogues such as 10 also require both dThd and HX for complete protection from their growth inhibitory effect.

Mouse liver FPGS [8] = molecular target: T1, Mouse liver FPGS; experiment: Substrate activity for partially purified FPGS from mouse liver; format: biochemical
Description: ^c Substrate activity for partially purified FPGS from mouse liver wa
determined as described previously (Moran et al., Mol. Pharmacol. 27:156,
1985), with relative Vmax and k' values expressed in comparison with […]

L1210 TS [9] = molecular target: T2, L1210 TS; experiment: Inhibition of purified TS from L1210 murine leukemic cells (3H release assay); format: biochemical
Protocol: ^b Inhibition of purified TS from L1210 cells was determined by the
^3 Hrelease assay method as described previously (Sikora et al.)

T2 sequence (P07607 whole entry): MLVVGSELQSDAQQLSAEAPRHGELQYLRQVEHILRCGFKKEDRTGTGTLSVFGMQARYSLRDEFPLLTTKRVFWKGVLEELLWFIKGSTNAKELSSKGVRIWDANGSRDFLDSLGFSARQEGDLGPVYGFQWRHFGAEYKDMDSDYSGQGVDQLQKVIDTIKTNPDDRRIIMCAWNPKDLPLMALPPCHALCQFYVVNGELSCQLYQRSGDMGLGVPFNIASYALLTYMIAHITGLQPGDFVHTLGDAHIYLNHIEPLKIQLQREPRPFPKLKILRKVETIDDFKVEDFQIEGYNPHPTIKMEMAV

**Q.** For `Nc1nc2ccc(CNc3ccc(C(=O)N[C@@H](CCC(=O)O)C(=O)O)cc3)cc2c(=O)[nH]1` [Compound 1, 5,8-Dideazafolic Acid], which IC50 (L1210 cells [1]) is on record?
**A.** Its IC50 is 2700 nM.

**Q.** What about the “Vmax (rel), Mouse liver FPGS” value (Mouse liver FPGS [2]) of the same compound?
**A.** The value was 1.3.

**Q.** And the “k'(rel), Mouse liver FPGS” value (Mouse liver FPGS [2])?
**A.** Its value is 29.

**Q.** With `C#CCN(Cc1ccc2nc(N)[nH]c(=O)c2c1)c1ccc(C(=O)N[C@@H](CCC(=O)O)C(=O)O)cc1` [Compound 2, N^10 -Propargyl-5,8-dideazafolic Acid] as the compound, how does the solubility [3] read?
**A.** Its solubility is “low solubility at physiologic pH”.

**Q.** And the “reversal of inhibitory effect on growth of L1210 cells by thymidine plus folinic acid” value (L1210 cells [1]; 5 μM dThd and 5 μM folinic acid)?
**A.** The value was “restored to normal levels”.

**Q.** And the “reversal of inhibitory effect on growth of L1210 cells by thymidine” value (L1210 cells [1]; 10 μM thymidine alone)?
**A.** The value was “not fully reversed”.

**Q.** What about the “reversal of inhibitory effect on growth of L1210 cells by thymidine plus hypoxanthine” value (L1210 cells [1]; 10 μM thymidine and 50 μM hypoxanthine) of the same compound?
**A.** Its value is “restored to normal levels”.

**Q.** What about the IC50 (L1210 cells [1]) of the same compound?
**A.** Its IC50 is 3500 nM.

**Q.** And the “toxicities in clinical use” value [4]?
**A.** Its value is “hepatic and renal toxicities”.

**Q.** And the “Vmax (rel), Mouse liver FPGS” value (Mouse liver FPGS [2])?
**A.** The value was 0.88.

**Q.** What about the “k'(rel), Mouse liver FPGS” value (Mouse liver FPGS [2]) of the same compound?
**A.** Its value is 2.3.

**Q.** And the “transport mechanism of cell entry” value [5]?
**A.** Its value is “distinct from that of reduced folates and MTX”.

**Q.** With `O=C(O)CC[C@H](NC(=O)c1ccc(NCc2ccc3nc[nH]c(=O)c3c2)cc1)C(=O)O` [Compound 3, 2-Desamino-5,8-dideazafolic Acid] as the compound, how does the IC50 (L1210 cells [1]) read?
**A.** Its IC50 is 430 nM.

**Q.** What about the “Vmax (rel), Mouse liver FPGS” value (Mouse liver FPGS [2]) of the same compound?
**A.** Its value is 1.3.

**Q.** What about the “k'(rel), Mouse liver FPGS” value (Mouse liver FPGS [2]) of the same compound?
**A.** The value was 29.

**Q.** What about the Ki (L1210 TS [6]; purified TS from L1210 cells, Table 1, read-out: Ki, L1210 TS) of the same compound?
**A.** The Ki was 2000 nM.

**Q.** What about the Ki (L1210 TS [6]; reported previously (Jackman et al.), read-out: Ki for TS inhibition) of the same compound?
**A.** The Ki was 2000 nM.

**Q.** What does the source list for `O=C(O)CC[C@H](NC(=O)c1ccc(NCc2ccc3nn[nH]c(=O)c3c2)cc1)C(=O)O` [Compound 10, N-[4-(1,2,3-Benzotriazin-4(3H)-on-6-yl)methyl] aminobenzoyl-L-glutamic Acid]?
**A.** difference in IC50 with and without dThd compared with 1, 2 and 3 (L1210 cells [7]; L1210 cells): comparable to that reported for 1 and 3, but much lower than that reported for 2; potency against cultured cells relative to 2-desamino-5,8-dideazafolate (L1210 cells [7]; L1210 cells, 10 versus 3): comparable; difference in IC50 with and without dThd (L1210 cells [7]; L1210 cells, dThd 0.84 versus 0.42 μM): twofold; IC50 (L1210 cells [7]; 10 μM dThd (footnote e), read-out: IC50, L1210 cells grown in the presence of dThd): 840 nM; IC50 (L1210 cells [7]; 48 h, RPMI 1640 with 10% nondialyzed fetal calf serum, without dThd, read-out: IC50, L1210 cells): 420 nM; k'(rel) lower than the k'(rel) of 1 or 3 (Mouse liver FPGS [8]; ratio 10 versus 1 or 3): 4.6 -fold; k'(rel) greater than that for CB3717 (Mouse liver FPGS [8]; ratio 10 versus CB3717): twofold; Vmax (rel), Mouse liver FPGS (Mouse liver FPGS [8]; relative to folic acid (1.0)): 1.6; k'(rel), Mouse liver FPGS (Mouse liver FPGS [8]; relative to folic acid (1.0), Km (app) divided into Vmax (rel)): 6.3; increase in TS binding (L1210 TS [9]; 10 versus 2-desamino analogue 3): ca. sixfold; Ki (L1210 TS [9]; purified TS from L1210 cells, Table 1): 330 nM
